In US20250154611A1, “SYSTEMS AND METHODS TO DETECT STEM CELL STRESS AND USES THEREOF” (Wayne State University, priority 2014, published 2025):

Columns and labels:
TSCs = test: qPCR of terminal differentiation markers in TSCs with or without 100 mM sorbitol; format: cell-based, mouse; settings: 0.5% O2, 7 days
Experimental: . TSCs were cultured in 0-20% O2 for 0-7 days±FGF4 as indicated, rapidly frozen, and assayed for free ATP (n=4). (FIG. 6B) At 7 days, FGF4 absence increased terminal differentiation markers 8-20 fold at 20% O2, but lower differentiation levels at 0.5% O2 were not increased by a sorbitol dose, which induces high levels of differentiation at 20% O2. TSCs were cultured for 7 days±FGF4 at 20% or 0.5% O2±100 mM sorbitol. mRNA was purified and reverse transcribed, then analyzed for relative amounts of 3 terminal differentiation markers that were normalized to housekeeping mRNAs. Triplicate experiments are shown, with mean±s.e.m. (error bars). […]. (FIG. 6D) Correspondingly, at 7 days, mitochondrial Δψm increased only at O2≥2% with FGF4 removal. TSCs were cultured for 7 days at 20% O2 (a,d), 2% O2 (b,e), or 0.5% O2 (c,f) with FGF4 (a-c) or without FGF4 (d-f) and stained with JC1. Micron bar in micrograph (a) indicates […]. Green fluorescence indicates monomeric stain and low membrane charge and red fluorescence indicates polymeric stain and high charge. For original color fluorescence figures see (Xie, Stem Cell Research, 13:478, 2014 (Xie, 2014)).
RNA isolation and quantitative reverse transcription-PCR (qRT-PCR). […] Briefly, DNase-treated total RNA was isolated following cDNA preparation using QuantiTect Reverse Transcription Kit […] (Qiagen). […]

Rex1-RFP mESCs = test: Flow cytometry of Rex1-RFP reporter mESCs (bright, intermediate, dim subpopulations); format: cell-based, mouse; settings: 3 days; for Bright subpopulation / Dim subpopulation / Intermediate + Dim / Intermediate subpopulation: LIF+
Experimental: . Rex1-RFP mESCs expressing Rex1 promoter reporter were cultured in 12-well plates until 30% confluent, treated with 0 mM, 200 mM, and 300 mM sorbitol for 3 days, trypsinized, and cell suspensions were assayed by flow cytometry. Arbitrary thresholds (vertical red lines) were drawn at 5×10^3 on the X-axis between the middle of the two peaks and at 2 standard deviations above the mean of the parental (before infection) dim population shown in the bottom panel. Areas in parental dim, intermediate dim, and bright were defined by the 2 vertical red lines and were quantified as pixels using Image J from data in (FIG. 25A) to give histograms in (FIG. 25B).
FIGS. 26A and 26B. Viable Rex1 promoter reporter responds with stress treatment in a dose-dependent manner in flow cytometry assay. mESCs expressing Rex1 promoter reporter were cultured in 12-well plates till 30% confluence. Cells were then treated with 200-300 mM of sorbitol in 25 mM increments for 3 days. After trypsinization, the cell suspensions were subjected for flow cytometry assay. An arbitrary threshold was drawn at 5×10^3 on the x-axis and another near the low point between the bright peak and the dimmer peak to its left (FIG. 26A). […] Intermediate and bright groups were also defined by the two vertical red lines. Area sizes of the two peaks were quantified using Image J. The histogram bars (FIG. 26B) are derived by three independent experiments, one of which is shown in (FIG. 26A), errors bars showing s.e.m., One-way ANOVA was performed followed by Dunnett's post hoc test using 0 mM as reference for parental dim, intermediate dim, and bright separately.
Flow cytometric analysis of mESCs expressing pluripotency reporters. Fluorescence determination by the plate reader reported an averaged biochemical result from a population of cells inside the tissue culture vessel. […] This time point was designated as time zero. The cells were then treated with different sorbitol concentrations for 1-3 days. At each time point, cells were trypsinized and re-suspended in ice-cold D-PBS for flow cytometry assay using an LSR Fortessa flow cytometer (BD biosciences) and the FACS Diva Software version 7.0 (BD biosciences). Non-stressed mESCs that express Oct4-copGFP and/or Rex1-mApple and the non-modified, parental mESCs were used to set up the parameters that define the fluorescent cells and non-fluorescent cells.
From the histogram of FACS, two peaks are seen. The right peak represents the bright fluorescent potent ESCs. The left peak represents the dim fluorescent non-potent ESCs. An arbitrary vertical line is drawn here at the 5×10^3 position on the PE-A axis to separate the low potency ESCs. The peak areas were calculated using Image J by counting the area pixels.

p38MAPK = p38MAPK (Mus musculus, UniProt P47811); test: phospho-p38 western blot in mESCs under 200 mM sorbitol; format: cell-based; settings: 200 mM, persisted throughout 1 hr
Experimental: FIG. 14. […] Blots are representative of triplicate experiments. Phospho-proteins and their loading controls are grouped between black lines.
FIG. 15. […] Blots are representative of triplicate experiments.
Hyperosmotic activation of signaling enzymes. […] Zhong, 2010; Xie, 2011. […] To determine the kinetics of activation of these five kinases in the described system, mESCs were treated with 200 mM sorbitol for 1 hr. Expression levels of the activated (i.e., phosphorylated) enzymes were assayed by western blot analysis (FIG. 14), including phospho-p38MAPK, phospho-JNK, phospho-MEK1/2, and phospho-AKT (the downstream effector of PI3K signaling).
Efficacy of enzyme inhibitors.

p38MAPK, sequence (P47811 whole entry): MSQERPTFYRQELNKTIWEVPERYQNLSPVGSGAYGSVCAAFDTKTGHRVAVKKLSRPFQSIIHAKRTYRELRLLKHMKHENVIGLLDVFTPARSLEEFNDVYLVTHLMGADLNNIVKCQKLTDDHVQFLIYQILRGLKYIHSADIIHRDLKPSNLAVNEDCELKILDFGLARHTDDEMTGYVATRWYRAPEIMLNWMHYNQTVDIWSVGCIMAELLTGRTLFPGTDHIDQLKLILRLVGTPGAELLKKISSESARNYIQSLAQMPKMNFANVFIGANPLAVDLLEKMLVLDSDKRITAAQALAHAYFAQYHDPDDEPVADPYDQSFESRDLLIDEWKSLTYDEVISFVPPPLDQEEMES

OC[C@@H](O)[C@@H](O)[C@H](O)[C@@H](O)CO [sorbitol]
mRNA expression of terminal differentiation markers PL1, Plf, synTa (TSCs): did not increase
decrease in high activity Rex1 subpopulation (Rex1-RFP mESCs; 0 to 300 mM): 20%
decrease in the bright group (Rex1-RFP mESCs; 0 to 300 mM): 21.5%
increase in parental dim ESCs (Rex1-RFP mESCs; 0 to 300 mM): 15.8%
increase in the low Rex1 activity subpopulation (Rex1-RFP mESCs; 0 to 300 mM): 2.8 fold
total change toward intensity decrease (Rex1-RFP mESCs; 0 to 300 mM): 40.4 % of cells
Bright subpopulation (Rex1-RFP mESCs; 200 mM): 77.1%
Dim subpopulation (Rex1-RFP mESCs; 200 mM): 12.2%
Intermediate + Dim (Rex1-RFP mESCs; 200 mM): 22.9%
Intermediate subpopulation (Rex1-RFP mESCs; 200 mM): 10.7%
Bright subpopulation (Rex1-RFP mESCs; 225 mM): 75.6%
Dim subpopulation (Rex1-RFP mESCs; 225 mM): 13.7%
Intermediate + Dim (Rex1-RFP mESCs; 225 mM): 24.4%
Intermediate subpopulation (Rex1-RFP mESCs; 225 mM): 10.7%
Bright subpopulation (Rex1-RFP mESCs; 250 mM): 72%
Dim subpopulation (Rex1-RFP mESCs; 250 mM): 16.6%
Intermediate + Dim (Rex1-RFP mESCs; 250 mM): 28%
Intermediate subpopulation (Rex1-RFP mESCs; 250 mM): 11.4%
Bright subpopulation (Rex1-RFP mESCs; 275 mM): 71.9%
Dim subpopulation (Rex1-RFP mESCs; 275 mM): 17.1%
Intermediate + Dim (Rex1-RFP mESCs; 275 mM): 28.1%
Intermediate subpopulation (Rex1-RFP mESCs; 275 mM): 11%
Bright subpopulation (Rex1-RFP mESCs; 300 mM): 61.8+/−3.7%
Dim subpopulation (Rex1-RFP mESCs; 300 mM): 24.4+/−2.9%
Intermediate + Dim (Rex1-RFP mESCs; 300 mM): 28.1%
Intermediate subpopulation (Rex1-RFP mESCs; 300 mM): 13.8+/−2.1%
Bright subpopulation (Rex1-RFP mESCs; 300 mM, listed as Sorbitol): 61.8%
Dim subpopulation (Rex1-RFP mESCs; 300 mM, listed as Sorbitol): 24.4%
Intermediate subpopulation (Rex1-RFP mESCs; 300 mM, listed as Sorbitol): 13.8%
increase in intermediate dim ESCs (Rex1-RFP mESCs; to 300 mM): 3.1%
time at which activated p38MAPK was first detected (p38MAPK): 10 min
